Assay in all cases: relative viability (nuclei count vs DMSO), 5 days (fraction); higher = more cells survive
Compound in test [1]: CN(C/C=C/C1=CC=C(C=C1)Cl)CC2=CC=CC=C2N(CCO)S(=O)(=O)C3=CC=C(C=C3)OC [KN-93] + CC(=O)Nc1cccc(-n2c(=O)n(C3CC3)c(=O)c3c(Nc4ccc(I)cc4F)n(C)c(=O)c(C)c32)c1 [Trametinib] (partner 0.02 µM)
Summed up: (§1)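 Lung cancer cell lines in 1536-well plates got either a single drug or a fixed anchor-drug dose together with five library-drug doses (not always all listed) in √10 steps, by pin tool, on the day after seeding. Nuclei were counted after 5 days, and relative viability is the treated-to-vehicle ratio of nuclei counts. Values are medians of duplicate plates.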

Compound in test [2]: CN(C/C=C/C1=CC=C(C=C1)Cl)CC2=CC=CC=C2N(CCO)S(=O)(=O)C3=CC=C(C=C3)OC [KN-93] + CC(=O)c1c(C)c2cnc(Nc3ccc(N4CCNCC4)cn3)nc2n(C2CCCC2)c1=O [Palbociclib] (partner 0.5 µM)
Summed up: as §1

Compound in test [3]: CN(C/C=C/C1=CC=C(C=C1)Cl)CC2=CC=CC=C2N(CCO)S(=O)(=O)C3=CC=C(C=C3)OC [KN-93] + CCNC(=O)c1noc(-c2cc(C(C)C)c(O)cc2O)c1-c1ccc(CN2CCOCC2)cc1 [Luminespib] (partner 0.01 µM)
Put shortly:
as §1

Compound in test [4]: CN(C/C=C/C1=CC=C(C=C1)Cl)CC2=CC=CC=C2N(CCO)S(=O)(=O)C3=CC=C(C=C3)OC [KN-93] + CS(=O)(=O)CCNCc1ccc(-c2ccc3ncnc(Nc4ccc(OCc5cccc(F)c5)c(Cl)c4)c3c2)o1 [Lapatinib] (partner 2 µM)
Summed up: as §1

Compound in test [5]: CN(C/C=C/C1=CC=C(C=C1)Cl)CC2=CC=CC=C2N(CCO)S(=O)(=O)C3=CC=C(C=C3)OC [KN-93] + CS(=O)(=O)N1CCN(Cc2cc3nc(-c4cccc5[nH]ncc45)nc(N4CCOCC4)c3s2)CC1 [Pictilisib] (partner 1 µM)
Put shortly: as §1

For the cell line SK-LU-1, the relative viability in test [1] (first compound 0.08 µM) stood at 0.46; in test [1] (first compound 0.253 µM), 0.594; in test [1] (first compound 2.53 µM), 0.51; in test [1] (first compound 8 µM), 0.317; in test [2] (first compound 0.08 µM) it was 0.439; in test [2] (first compound 0.253 µM), 0.451. Further, the relative viability in test [2] (first compound 2.53 µM) stood at 0.41; in test [2] (first compound 8 µM), 0.314; in test [3] (first compound 0.08 µM), 0.244; in test [3] (first compound 0.253 µM) it was 0.209; in test [3] (first compound 2.53 µM), 0.199; in test [3] (first compound 8 µM), 0.183. The relative viability in test [4] (first compound 0.08 µM) is 0.644; in test [4] (first compound 0.253 µM) it was 1.15; in test [4] (first compound 2.53 µM) it was 0.972; in test [4] (first compound 8 µM), 0.56; in test [5] (first compound 0.08 µM), 0.5; in test [5] (first compound 0.253 µM), 0.591. Also, the relative viability in test [5] (first compound 2.53 µM) came out at 0.536; in test [5] (first compound 8 µM) it was 0.357.
As to SK-MES-1, the relative viability in test [1] (first compound 0.08 µM) came out at 0.561; in test [1] (first compound 0.253 µM), 0.493; in test [1] (first compound 2.53 µM), 0.514; in test [1] (first compound 8 µM), 0.407; in test [2] (first compound 0.08 µM), 0.367; in test [2] (first compound 0.253 µM), 0.301. Besides, the relative viability in test [2] (first compound 2.53 µM) was 0.354; in test [2] (first compound 8 µM), 0.284; in test [3] (first compound 0.08 µM) it was 0.899; in test [3] (first compound 0.253 µM), 0.69; in test [3] (first compound 2.53 µM), 0.728; in test [3] (first compound 8 µM), 0.286. Besides, the relative viability worked out at 0.464 in test [4] (first compound 0.08 µM); 0.425 in test [4] (first compound 0.253 µM); 0.514 in test [4] (first compound 2.53 µM); 0.425 in test [4] (first compound 8 µM); 0.332 in test [5] (first compound 0.08 µM); 0.327 in test [5] (first compound 0.253 µM). Moreover, the relative viability was 0.419 in test [5] (first compound 2.53 µM) and 0.253 in test [5] (first compound 8 µM).
For the cell line SW 1573, the relative viability worked out at 0.518 in test [1] (first compound 0.08 µM); 0.565 in test [1] (first compound 0.253 µM); 0.627 in test [1] (first compound 2.53 µM); 0.149 in test [1] (first compound 8 µM); 0.395 in test [2] (first compound 0.08 µM); 0.47 in test [2] (first compound 0.253 µM). Besides, the relative viability in test [2] (first compound 2.53 µM) was 0.429; in test [2] (first compound 8 µM) it was 0.15; in test [3] (first compound 0.08 µM), 0.178; in test [3] (first compound 0.253 µM), 0.303; in test [3] (first compound 2.53 µM), 0.187; in test [3] (first compound 8 µM) it was 0.144. Also, the relative viability in test [4] (first compound 0.08 µM) was found to be 1.31; in test [4] (first compound 0.253 µM), 1.11; in test [4] (first compound 2.53 µM) it was 1.14; in test [4] (first compound 8 µM), 0.919; in test [5] (first compound 0.253 µM), 0.446; in test [5] (first compound 2.53 µM), 0.493. In addition, in test [5] (first compound 8 µM), the relative viability amounted to 0.199.
Consider UMC-11, for which the relative viability was 0.607 in test [1] (first compound 0.08 µM); 0.761 in test [1] (first compound 0.253 µM); 0.858 in test [1] (first compound 2.53 µM); 0.223 in test [1] (first compound 8 µM); 0.35 in test [2] (first compound 0.08 µM); 0.306 in test [2] (first compound 0.253 µM). Further, the relative viability in test [2] (first compound 2.53 µM) amounted to 0.35; in test [2] (first compound 8 µM), 0.322; in test [3] (first compound 0.08 µM) it was 1.01; in test [3] (first compound 0.253 µM) it was 1.33; in test [3] (first compound 2.53 µM), 1.32; in test [3] (first compound 8 µM) it was 0.346. Further, the relative viability in test [4] (first compound 0.08 µM) is 0.839; in test [4] (first compound 0.253 µM), 1.12; in test [4] (first compound 2.53 µM) it was 1.32; in test [4] (first compound 8 µM) it was 0.626; in test [5] (first compound 0.253 µM) it was 0.976; in test [5] (first compound 2.53 µM), 0.962. The relative viability in test [5] (first compound 8 µM) worked out at 0.278.

Source of the values: the supplement of paper PMC10307832.
